Measured values published in article PMC12531871, “Indole-2-carboxamides Optimization for Antiplasmodial Activity” (ACS Bio & Med Chem Au, 2025).
Converted amounts (≈) assume the structure as drawn. “And” between values parts separate entries of the source, which are not always exact repeats. Equal entries are not always repeated. “Also recorded” adds a separate entry of the source. Where two headings read alike, the source gives them in different places.

Key:
[1] = Resazurin assay for cytotoxicity in HepG2 cells; assay type: cell-based, human; conditions: human, HepG2 cells; HepG2 cell line, 72 h, resazurin
Method: (§1) HepG2 cells were trypsinized, counted, and distributed in a 96-well plate at a density of 30,000 cells per well (180 μL). The plate was incubated at 37 °C and 5% CO2 for 24 h. Following incubation, 20 μL of serial dilutions of the tested compounds were added to the wells, with concentrations ranging from 30 to 0.47 μM. The plate was incubated for an additional 72 h at 37 °C and 5% CO2. Untreated cells served as positive controls, while wells containing only medium were used as negative controls. Postincubation, microscopy was employed to determine the highest compound concentration for treatment results. […] Concentration–response curves were generated, and half-maximal inhibitory concentration (CC50) values were determined using nonlinear regression analysis.

[2] = eLogD at pH 7.4, miniaturized shake flask method; assay type: physicochemical; conditions: for logD at 2 h: 1-octanol/PBS (1:1, v/v), pH 7.4, pH 7.4, miniaturized shake flask method
Method: eLogD at pH 7.4 was determined using a miniaturized shake flask method. A solution of a presaturated mixture of 1-octanol and phosphate-buffered saline (PBS) (1:1, v/v) and the test compound (75 μM) was incubated at 25 °C with constant shaking (850 rpm) for 2h. After incubation, the organic and aqueous phases were separated, and samples of each phase were transferred to a plate for dilution. […] The samples were quantitated using LC-MS/MS. The experiment was carried out in duplicate. Propranolol, Amitriptyline, and Midazolam were used as reference standards.

[3] = test system: P. falciparum 3D7 strain (Pf3D7); assay: Antiplasmodial activity against P. falciparum 3D7 blood-stage parasites (SYBR Green, 72 h); assay type: cell-based, Plasmodium falciparum
[4] = Human liver microsome stability; assay type: in vitro ADME; conditions: human microsomal intrinsic clearance; for microsomal CLint at 1 μM: human, pooled human liver microsomes, read-out: hMics, human microsome Clint
Method: A solution of the test compounds in phosphate buffer solution (1 μM) was incubated in pooled human or mouse liver microsomes (0.5 mg/mL) for 0, 5, 20, 30, 45, and 60 min at 37 °C in the presence and absence of an NADPH regeneration system (NRS). The tests were conducted by […], India. The reaction was terminated with the addition of ice-cold acetonitrile, containing a […] standard, at designated time points. The sample was centrifuged (4200g) for 20 min at 20 °C and the supernatant was diluted by half in water and then analyzed by LC-MS/MS. The % parent compound remaining, half-life (t 1/2) and clearance (CLint) were calculated using standard methodology. The experiment was carried out in duplicate. Verapamil, diltiazem, phenacetin, and imipramine were used as reference standards.

P. falciparum Dd2 strain = assay: Antiplasmodial activity against resistant P. falciparum Dd2; assay type: cell-based; conditions: Plasmodium falciparum, 3D7 / DD2; resistant Dd2, in parallel with 3D7; read-out: IC50^Dd2 ± SD
Rat hepatocyte stability = assay type: in vitro ADME; conditions: for R Heps (Clint): rat hepatocyte stability
Method: The reaction was terminated with the addition of ice-cold MeCN at designated time points. The samples were then centrifuged (4200 rpm) for 20 min at 20 °C, and the supernatant was half diluted in water and then analyzed using LCMS/MS. The % parent compound remaining, half-life (t 1/2), and clearance (CLint) were calculated using standard methodology. The experiment was carried out in duplicate. Diltiazem, 7-Ethoxy Coumarin, Propranolol, and Midazolam were used as reference standards.

[5] = Kinetic solubility at pH 7.4; assay type: physicochemical; conditions: phosphate-buffered saline, 25 °C, pH 7.4, aqueous buffer, kinetic from dmso stock; read-out: Kinetic solubility (Sol)
Method: Kinetic solubility assay was performed using UV–vis detection. […] The samples were filtered using a multiscreen solubility filter plate. The filtrate was diluted by 50% with MeCN. A five-point linearity curve was prepared in PBS/MeCN (1:1, v/v) at 200, 150, 75, 25, and 2.5 μM. Blank, linearity, and test samples (n = 2) were transferred to a UV-readable plate, and the plate was scanned for absorbance. Best-fit calibration curves were constructed using the calibration standards and used to determine the test sample solubility. The experiment was carried out in duplicate. Diethylstilbestrol, Haloperidol, and Diclofenac Sodium were used as reference standards.

P. falciparum K1 strain = assay: Antiplasmodial activity against resistant P. falciparum K1; assay type: cell-based; conditions: Plasmodium falciparum, 3D7 / K1; resistant K1, in parallel with 3D7; read-out: IC50^K1 ± SD
[6] = test system: P. falciparum field isolates from Brazil; assay: Ex vivo drug susceptibility of P. falciparum field isolates; assay type: cell-based, Plasmodium falciparum; conditions: Plasmodium falciparum; for EC50: read-out: median EC50 against P. falciparum isolates; for IC50: read-out: median IC50 (range), P. falciparum (7)
P. falciparum 3D7 clone = assay: Ex vivo schizont maturation assay, 3D7 laboratory strain control; assay type: cell-based; conditions: Plasmodium falciparum
[7] = test system: P. falciparum Dd2 (chloroquine resistance); assay: Effect of verapamil on inhibitory activity in P. falciparum Dd2; assay type: cell-based; conditions: Plasmodium falciparum
[8] = test system: synchronized P. falciparum parasites (3D7 strain); assay: P. falciparum asexual blood stage-specificity assay (8 h exposures); assay type: cell-based, Plasmodium falciparum
[9] = test system: P. falciparum 3D7 (chloroquine-sensitive); assay: Effect of verapamil on inhibitory activity in P. falciparum 3D7; assay type: cell-based; conditions: Plasmodium falciparum
[10] = test system: P. vivax field isolates from Brazil; assay: Ex vivo drug susceptibility of P. vivax field isolates; assay type: cell-based; conditions: Plasmodium vivax; for EC50: read-out: median EC50 against P. vivax field isolates; for IC50: read-out: median IC50 (range), P. vivax (9)
HepG2 cells = assay: Resazurin assay for cytotoxicity in HepG2 cells; assay type: cell-based, human; conditions: Homo sapiens, HepG2
Method: as §1

P. falciparum = assay: Parasite reduction ratio (PRR) assay, in vitro rate of kill; assay type: cell-based, Plasmodium falciparum
Source text: This library was designed to maximize chemical diversity and novelty of compounds with physicochemical properties consistent with potential for further development.

[11] = test system: P. falciparum NF54 strain; assay: Antiplasmodial activity against P. falciparum NF54 (SYBR Green, 72 h); assay type: cell-based, Plasmodium falciparum; conditions: read-out: NF54-IC50
[12] = test system: P. falciparum (3D7 strain) digestive vacuole; assay: Digestive vacuole homeostasis, acridine orange fluorescence; assay type: cell-based, Plasmodium falciparum; conditions: 10 μM, 3 min treatment, isolated parasites
Method: The sample was incubated for 40 min at 37 °C. […] Fluorescence was measured in a Hitachi F-7000 fluorimeter (Tokyo, Japan) by continuous measurement of the fluorescence (λex = 488 nm; λem = 560 nm) at 37 °C. Experiments were performed in triplicate.

[13] = Plasmodium falciparum, 3D7, 72 h, 3D7 strain, 72 h, SYBR Green, read-out: Pf3D7-IC50
[14] = Plasmodium falciparum, 3D7 / DD2, sensitive 3D7, in parallel with K1 and Dd2, read-out: IC50^3D7 ± SD
[15] = 3D7 strain, 72 h, SYBR Green, read-out: Pf3D7-IC50

Compound	CC50 at 72 h [1] [nM]	logD at 2 h [2]	IC50 [3, 13] [nM]	IC50 [3, 14] [nM]	microsomal CLint at 1 μM [4] [µL/min/mg]	IC50 (P. falciparum Dd2 strain) [nM]	R Heps (Clint) (Rat hepatocyte stability) [μL/min/10^6]	solubility kinetic at 2 h [5] [µM]	IC50 (P. falciparum K1 strain) [nM]	other results
CN1CCC(N(Cc2cccnc2)C(=O)c2cc3cc(Cl)ccc3[nH]2)CC1 [Compound 5t, 5-Chloro-N-(1-methylpiperidin-4-yl)-N-(pyridin-3-ylmethyl)-1H-indole-2-carboxamide]	> 30000	2.3	370 ± 40	300 ± 100	36	700 ± 200	50	> 200	500 ± 300	–
CCN(CC)CCCC(C)Nc1ccnc2cc(Cl)ccc12 (stereo not drawn) [chloroquine, reference compound]	–	–	–	–	–	–	–	–	–	EC50 [6]: 1200 nM; IC50 [6]: 1200 nM; IC50 (P. falciparum 3D7 clone; 3D7, read-out: P. falciparum 3D7 IC50): 12 nM; IC50 ([7]; DD2, read-out: IC50^Dd2 (without VP)): 655 nM; timing of peak activity (lowest IC50^8h) in asexual blood stages [8]: peak activity at ring and trophozoite stages; IC50 ([9]; 3D7, read-out: IC50^3D7 (without VP)): 39.8 nM; IC50 ([9]; 3D7, read-out: IC50 in 3D7 strain): 40 to 50 nM; EC50 [10]: 295 nM; IC50 [10]: 295 nM
C[C@H]1[C@H](OC(=O)CCC(=O)O)O[C@@H]2O[C@@]3(C)CC[C@H]4[C@H](C)CC[C@@H]1[C@@]24OO3 [artesunate]	–	–	–	–	–	–	–	–	–	IC50 ([6]; 7 clinical isolates, ex vivo): 0.6 nM; EC50 ([6]; ex vivo): 0.6 nM; IC50 (P. falciparum 3D7 clone; ex vivo assay conditions, 3D7 control, read-out: P. falciparum 3D7 IC50): 8 nM; IC50 ([10]; 9 clinical isolates, ex vivo): 1 nM; EC50 ([10]; ex vivo): 1 nM
O=C(c1cc2cc(C(F)(F)F)ccc2[nH]1)N(Cc1cccnc1)C1CCNCC1 [Compound 6y, N-(Piperidin-4-yl)-N-(pyridin-3-ylmethyl)-5-(trifluoromethyl)-1H-indole-2-carboxamide]	> 30000	1.4	220 ± 90	300 ± 100	17	1600 ± 300	4	> 200	2100 ± 200	–
O=C(c1cc2cc(Cl)ccc2[nH]1)N(Cc1cccnc1)CC1CCNC1 (stereo not drawn) [Compound 6a, 5-Chloro-N-(pyridin-3-ylmethyl)-N-(pyrrolidin-3-ylmethyl)-1H-indole-2-carboxamide]	> 30000	0.62	1390	–	4.6	9100 ± 100	15	193 (≈ 71.2 µg/mL)	6400 ± 100	IC50 (HepG2 cells): > 20000 nM; Parasite Reduction Rate (PRR), rate of kill (P. falciparum): as fast as that of CQ; also recorded: Fast-acting inhibitor; LogD ([2]; pH 7.4, miniaturized shake flask method): 0.6; IC50 [3, 15]: 1400 nM and 1000 nM; hMics, human microsome Clint [4]: 5 µL/min/mg; hepatocyte CLint at 1 μM (Rat hepatocyte stability; pooled rat hepatocytes, rat hepatocyte intrinsic clearance, read-out: Rat hep Clint): 14.6 µL/min/1e6 cells; IC50 ([11]; NF54 strain): 800 ± 400 nM; IC50 ([11]; Plasmodium falciparum, NF54, NF54 strain): 840 nM
COc1ccc2[nH]c(C(=O)N(Cc3cccnc3)CC3CCNC3)cc2c1 (stereo not drawn) [Compound 6d, 5-Methoxy-N-(3-pyridylmethyl)-N-(pyrrolidin-3-ylmethyl)-1H-indole-2-carboxamide]	–	-0.4	> 10000	–	7	–	4	> 1000	–	effect on digestive vacuole H+ homeostasis (acridine orange fluorescence) [12]: strong interaction
Cl.O=C(c1cc2cc(Cl)ccc2[nH]1)N(Cc1cccnc1)C1CCNCC1 [Compound 6x, 5-Chloro-N-(piperidin-4-yl)-N-(pyridin-3-ylmethyl)-1H-indole-2-carboxamide hydrochloride]	> 30000	1	~300	400 ± 300	3	4700 ± 800	2	196	5200 ± 200	IC50 [3, 15]: 330 ± 80 nM; IC50 ([7]; read-out: IC50^Dd2 (10 μM VP), Dd2, presence of 10 μM verapamil): 560 nM; IC50 ([7]; Dd2, absence of verapamil, read-out: IC50^Dd2 (without VP)): 2940 nM; IC50 ([9]; 3D7, verapamil experiment, read-out: IC50 in 3D7 strain): ~150 nM; IC50 ([9]; read-out: IC50^3D7 (10 μM VP), 3D7, presence of 10 μM verapamil): 214 nM; IC50 ([9]; 3D7, absence of verapamil, read-out: IC50^3D7 (without VP)): 148 nM
